Measurements: US6410515B1, “Peptide, a method for its preparation and a pharmaceutical composition containing the peptide” (Immunotech Developments Inc., priority 1995, dated 2002)
Marks after values point to notes of the source that are not given here.

Columns and labels:
[1] = test system: lethally irradiated recipient mice; test: State of hemopoiesis after transplantation of allogenic bone marrow; assay type: in vivo; conditions: for Caryocytes in blood: control 1,7 + 0,3; for Lymphocytes, %: control 3
Experimental: In a series of experiments, bone marrow cells (6 million) of one of the parents were transplanted to lethally irradiated recipient mice which were hybrids of the first generation. […] Generally, weight loss is observed and there is a small percent of deaths during the 42-day study.
A day after the bone marrow transplantation, test recipients began to receive therapy. Three schemes of therapy were used: (1) iDD, 10 μg/kg, ip, for 5 days running, with 2-day intervals, for 6 weeks (K+iDD); (2) before transplantation, bone marrow transplants were treated with iDD in vitro for 1 hour at 37° C., 0.2 jig per 2 x 10^6 cells, without […] treatment with the preparation (iDD); and (3) bone marrow was pretreated in vitro as described in scheme 2, followed by iDD therapy as in scheme 1 (iDD+iDD). Control subjects were mice that were transplanted with the bone marrow without any further therapy. These animals received ip injections of the solvent according to the same schedule.

[2] = test system: mixed lymphocyte culture (MLC); test: Mixed lymphocyte culture (MLC) proliferation; assay type: cell-based, mice
Experimental: The influence of the peptides of the invention on the proliferation of a mixed lymphocyte culture (MLC) was studied. The MLC experimental system is an in vitro analogue of the GVHD reaction.
Donor spleen cells from C57B1 mice ([…]) were injected into recipient (CBA×C57B1) F1 mice. Bone marrow was removed from the recipient and cultured for 4 days. The cultured cells were separated into 3 test groups, one group was treated with iDD, one with the L-peptide H-Ile-Glu-Trp-OH and one was a control. Each test peptide was added in various concentrations. Each determination was done in triplicate. ^3H-thymidine was added to each culture for 16 hours and the index of the proliferation of the cells was calculated.

[3] = test system: hyperthermic bone marrow cells (CFU-S); test: Survival of CFU-S of bone marrow after heating at 42° C.; assay type: cell-based
Experimental: Hyperthermia is used in the treatment of various cancer types. When treating leukosis, the damaged bone marrow cells are heated at approximately 41-42° C. in order to kill malignant cells as they are more sensitive to heat. However, some non-malignant stem cells may also be affected. Consequently, the ability of the iDD peptide to protect cells during hyperthermia was tested. A suspension of the bone marrow, previously incubated for 1 hour at 37° C. in the presence of iDD (0.2 μg/4×10^6 cells), was heated for 30 minutes at 42° C. It was then diluted until the necessary concentration was reached and transplanted to the lethally radiated recipients The quantity of the exogenous colonies in the spleen was determined on the ninth day. […] The decrease of the colony formation under the action of iDD is not critical, because its colony-inhibiting action is reversible.

[4] = test system: Splenic cells of the mice; test: Concavalin A-stimulated proliferation of splenic cells (3H-thymidine); assay type: cell-based, Balb/c mice; conditions: 48 h, control 61467
Experimental: The biological effect of the D-iGlu-D-Trp (iDD) was studied in Balb/c mice. […] The preparation under study was added at the beginning of the culture. Concavalin A was used as a mitogen, in a final concentration of 2 μg per well. The plates were incubated at 37° C. and in 5% CO2 for 48 h. 3H-thymidine was incorporated into the cells in the amount of […], 24 h prior to the end of the culture. Proliferation of the cells was measured with the use of a scintillation c-counter and expressed in counts per minute (CPM).

[5] = test system: patients with cytopenias of immune origin; test: Clinical study: blood indices and lymphocyte subpopulations; assay type: in vivo; conditions: for CD4+/CD8+ ratio After iDD treatment: normal 0.7-3.3; for % of cells After iDD treatment: CD4−CD8+ T-Suppressers: normal 18.9-47.9; for % of cells After iDD treatment: CD4+CD8− T-helpers: normal 31.4-63.8
Experimental: The peptide iDD was given to patients with cytopenias of immune origin and its effect on hemopoietic status was assessed using a number of immunological tests characterising both humoral and cellular immunity.
The iDD was administered 0.1 mg in a 1 ml dose intranasally (once or twice in divided doses) for 5 days. The regime was repeated after a two week interval. For patients receiving steroids and cytostatics, iDD was administered during the therapy or before the cytostatic treatment.
Below are cited the examples of indices dynamics in some patients.

(CBA×C57B1)F1 mice = test: Chronic graft versus host reaction (GVHR); assay type: in vivo; conditions: for Mouse weight: iDD 10 μg/kg/injection
Experimental: The effect of the peptide on a chronic “graft versus host reaction ” (GVHR) was studied, using the mode l described by Bundic et al. (Exp. Immunol. 1995, 99, p.467). Chronic GVHR was induced in hybrid non-irradiated animals by injecting them twice with large amounts (100 mln) of spleen cells of one of the parents.
Recipients were (CBA×C57B1)F1 mice, and donors of spleen cells were mice of the strain C57B1. The preparation iDD was administered in the same dose (10 μg/kg/injection) as in the tests on transplantation of allogenic bone marrow. Th e five-day treatment course began 24 hours after the first injection of spleen cells and lasted three weeks. Control group mice received Medium 199 in the same amount and at the same time as test mice received the peptide. Each group consisted of 15 animals.
Indicators of the degree of GVHR development were animal weight and splenomegaly (as measured by the increase in recipient's spleen weight on day 21). The effectiveness of the preparation was assessed by splenomegaly suppression expressed in % to control (splenomegaly in the control group was taken for […]). The interval between the first and the second injections of spleen cells was 7 days.
On day 21, a sharp increase in weight was recorded in 70% of control mice and 55% of test mice.

[6] = iDD + iDD: in vitro pretreatment and iDD therapy
[7] = iDD: transplant treated in vitro only

For H-D-iGlu-D-Trp-OH [iDD], the Caryocytes in blood ([1]; K+ iDD: iDD 10 μg/kg ip, 6 weeks, intact 5,4 + 1,0) was 3,8 + 0,3 thousand/μl, the “Lymphocytes, %” value ([1]; K+ iDD: iDD 10 μg/kg ip, 6 weeks, intact 43) was 19% and the Caryocytes in blood [1, 6] was 5,2 + 0,6* thousand/μl. The “Lymphocytes, %” value [1, 6] was 40* %, the Caryocytes in blood [1, 7] was 4,2 + 0,3 thousand/μl and the “Lymphocytes, %” value [1, 7] was 21,5%. The “Increase of lymphocyte count versus control” value ([1]; schemes K+iDD and iDD) was 6-7 times, the “Effect on MLC when H-Ile-Glu-Trp-OH and iDD added in equal concentrations” value ([2]; both peptides in equal concentrations) was “the effect of iDD was predominant” and the “Depression of the proliferation MLC” value ([2]; concentrations of 10 and 20 μg/ml, FIG. 1) was ~50%. The “Medium quantity of colonies” value ([3]; iDD 0.2 μg/4×10^6 cells + heating 30 minutes at 42° C., control + heating 5.9 ± 0.6) was 6.9 ± 0.6, the “Medium quantity of colonies” value ([3]; iDD 0.2 μg/4×10^6 cells, no heating, control 11.4 ± 0.4) was 6.0 ± 0.6 and the “Survival of CFU-S, %” value ([3]; iDD + heating, control + heating 51.7) was 115%. The “Survival of CFU-S, %” value ([3]; iDD, no heating (reference)) was 100%, the “CPMI (proliferation, 3H-thymidine)” value ([4]; Preparation dose 1 μcg/ml) was 68594 CPM and the “CPMI (proliferation, 3H-thymidine)” value ([4]; Preparation dose 5 μcg/ml) was 63428 CPM. For the same substance, the “CPMI (proliferation, 3H-thymidine)” value ([4]; Preparation dose 10 μcg/ml) was 20043 CPM, the “CPMI (proliferation, 3H-thymidine)” value ([4]; Preparation dose 20 μcg/ml) was 13222 CPM and the “Absolute count after iDD: CD3−CD16,56+ nat. killers” value ([5]; Patient A, before 0.164) was 0.108 bln/l. The “Absolute count after iDD: CD3+HLA−DR+ activated T-lymphocytes” value ([5]; Patient A, before 0.388) was 0.251 bln/l, the “Absolute count after iDD: CD4−CD8+ T-Suppressers” value ([5]; Patient A, before 0.657) was 0.305 bln/l and the “Absolute count after iDD: CD4+CD8− T-helpers” value ([5]; Patient A, before 0.769) was 0.522 bln/l. For the same substance, the “Absolute count after iDD: CD45++CD14− lymphocytes” value ([5]; Patient A, before 1.6) was 0.9 bln/l, the Haemoglobin content ([5]; Patient A, iDD, no steroids) was 106 g/L and the “CD4+/CD8+ ratio After iDD treatment” value ([5]; Patient A, test sample 1.2) was 1.7. The “% of cells After iDD treatment: CD45+CD14+ monocytes” value ([5]; Patient A, test sample 6.1) was 3.3%, the “% of cells After iDD treatment: CD3−CD16,56+ nat. killers” value ([5]; Patient A, test sample 10.3) was 12.0% and the “% of cells After iDD treatment: CD3+HLA−DR+ activated T-lymphocytes” value ([5]; Patient A, test sample 24.3, normal 2.8-17.3) was 27.9%. For the same substance, the “% of cells After iDD treatment: CD45++CD14− lymphocytes” value ([5]; Patient A, test sample 33.2) was 34.8%, the “% of cells After iDD treatment: CD4−CD8+ T-Suppressers” value ([5]; Patient A, test sample 41.1) was 33.9% and the “% of cells After iDD treatment: CD45+CD14− granulocytes” value ([5]; Patient A, test sample 41.4) was 48.5%. For the same substance, the “% of cells After iDD treatment: CD4+CD8− T-helpers” value ([5]; Patient A, test sample 48.1) was 58.0%, the “Absolute count after iDD: CD3−CD16,56+ nat. killers” value ([5]; Patient K, before 0.057) was 0.054 bln/l and the “Absolute count after iDD: CD4+CD8− T-helpers” value ([5]; Patient K, before 0.614) was 0.393 bln/l. For the same substance, the “Absolute count after iDD: CD4−CD8+ T-Suppressers” value ([5]; Patient K, before 0.712) was 0.510 bln/l, the “Absolute count after iDD: CD45++CD14− lymphocytes” value ([5]; Patient K, before 1.68) was 1.09 bln/l and the “CD4+/CD8+ ratio After iDD treatment” value ([5]; Patient K, test sample 0.8) was 0.8. For the same substance, the “% of cells After iDD treatment: CD3−CD16,56+ nat. killers” value ([5]; Patient K, test sample 3.4, normal 4.8-26.7) was 5.0%, the “% of cells After iDD treatment: CD45+CD14+ monocytes” value ([5]; Patient K, test sample 5.3) was 5.2% and the “% of cells After iDD treatment: CD45++CD14− lymphocytes” value ([5]; Patient K, test sample 26.0) was 20.2%. For the same substance, the “% of cells After iDD treatment: CD4+CD8− T-helpers” value ([5]; Patient K, test sample 36.3) was 36.1%, the “% of cells After iDD treatment: CD4−CD8+ T-Suppressers” value ([5]; Patient K, test sample 44.5) was 46.8% and the “% of cells After iDD treatment: CD45+CD14− granulocytes” value ([5]; Patient K, test sample 55.8) was 74.7%. For the same substance, the Survival rate ((CBA×C57B1)F1 mice; 21 days, control 80%) was 100%, the “Weight loss throughout the experiment” value ((CBA×C57B1)F1 mice; 21 days, control group weight loss 3 g) was “practically no weight loss” and the “Splenomegaly suppression, %” value ((CBA×C57B1)F1 mice; day 21, relative to control) was 26%. The Splenomegaly ((CBA×C57B1)F1 mice; day 21, control 12,6 ± 1,2, intact 3,4 ± 0,3) was 10,2 ± 1,0 mg spleen per mg body weight, the “Mice with sharp increase in weight on day 21” value ((CBA×C57B1)F1 mice; day 21, control 70%) was 55% and the Mouse weight ((CBA×C57B1)F1 mice; day 0 after the first injection of spleen cells, control 22,3 ± 0,9) was 22,6 ± 0,7 g. For the same substance, the Mouse weight ((CBA×C57B1)F1 mice; day 7, control 21,7 ± 0,8) was 25,0 ± 0,6 g, the Mouse weight ((CBA×C57B1)F1 mice; day 14, control 18,3 ± 0,9) was 23,3 ± 1,0 g and the Mouse weight ((CBA×C57B1)F1 mice; day 21, control 19,3 ± 1,1) was 22,7 ± 0,9 g.
